Experimental data reported in ChEMBL document CHEMBL1201862, “PubChem BioAssay data set” (2004).
Activity calls are given as the source filed them.

Experiments:
[1] = cytotoxicity toward DRD oncogenic fibroblasts, dose response, cell-based, non-viral oncogenic, luminescence (AID 1934); format: functional; conditions: Homo sapiens
BJ [2] = assay: cells; format: functional, cell-based; conditions: Homo sapiens
BJ [3] = assay: cytotoxicity toward BJ-TERT fibroblasts, dose response, cell-based, RAS-independent, luminescence (AID 1933); format: functional; conditions: Homo sapiens
BJ [4] = assay: cytotoxicity toward BJ-TERT-LT-ST fibroblasts, dose response, cell-based, RAS-independent, luminescence (AID 1935); format: functional; conditions: Homo sapiens;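 note: BJ fibroblasts immortalized with TERT plus LT and ST oncogenes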
[5] = Luminescence Cell-Based Dose Confirmation HTS to Identify Inhibitors of Platelet Dense Granule Release. [Related pubchem assays: 1663 (Primary HTS), 1678 (Summary of Project)]; format: functional
[6] = molecular target: T1, Calpain-2 catalytic subunit (Sus scrofa, UniProt P43367); assay: pig calpain II inhibitor potency, dose response, biochemical, fluorogenic peptide substrate (AID 1420); format: functional
T1 sequence (P43367 whole entry): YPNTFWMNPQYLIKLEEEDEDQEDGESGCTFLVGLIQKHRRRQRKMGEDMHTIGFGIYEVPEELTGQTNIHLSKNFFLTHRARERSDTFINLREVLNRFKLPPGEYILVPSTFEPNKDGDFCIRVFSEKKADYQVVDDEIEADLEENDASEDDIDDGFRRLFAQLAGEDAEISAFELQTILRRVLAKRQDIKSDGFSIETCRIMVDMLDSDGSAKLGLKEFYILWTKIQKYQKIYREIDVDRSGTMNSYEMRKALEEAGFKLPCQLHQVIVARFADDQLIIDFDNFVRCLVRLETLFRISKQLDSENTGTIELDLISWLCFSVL

[7] = molecular target: Luciferin 4-monooxygenase (Photinus pyralis, UniProt P08659); assay: firefly luciferase enzyme inhibitors, dose response, biochemical, luminescence (AID 1891)
P388 = assay: cells; format: functional; conditions: Mus musculus
SN12K1 = assay: cells; format: functional; conditions: Homo sapiens
P388/ADR = assay: cells; format: functional; conditions: Mus musculus
Cytochrome P450 2C9 = Cytochrome P450 2C9 (Homo sapiens, UniProt P11712)
Nonstructural protein 1 = Nonstructural protein 1 (Influenza A virus, UniProt Q194T2); format: functional, Influenza A virus (A/California/07/2009(H1N1))
[8] = molecular target: T2, Ubiquitin-conjugating enzyme E2 N (Homo sapiens, UniProt P61088); format: functional;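 note: Dose-response confirmation in a TR-FRET assay detecting UBC13-driven polyubiquitin chain formation, inhibition measured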
T2 sequence (P61088 whole entry): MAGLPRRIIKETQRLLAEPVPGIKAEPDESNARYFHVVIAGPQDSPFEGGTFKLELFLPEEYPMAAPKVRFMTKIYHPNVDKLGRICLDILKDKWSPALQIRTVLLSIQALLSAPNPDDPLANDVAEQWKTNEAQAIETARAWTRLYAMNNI

Cytochrome P450 2D6 = Cytochrome P450 2D6 (Homo sapiens, UniProt P10635);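 note: CYP2D6 member of a cytochrome P450 panel assay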
[9] = inhibitors of clade B AD8 Env fusion, dose response, cell-based, cherry-pick (AID 652062); format: functional;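 note: luciferase signal from cell-cell fusion driven by HIV-1 clade B AD8 Env; potency is for inhibitors of fusion seen as a drop in luminescence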
[10] = C. albicans growth with fluconazole, confirmation, fluorescence, retest (AID 2467); format: functional, cell-based
[11] = NIH-3T3 fibroblast cytotoxicity, dose response, cytotoxicity control, cell-based, fluorescence, Alamar Blue, secondary assay (AID 2327); format: functional;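 note: NIH-3T3 mouse fibroblasts cultured with fluconazole at 8 µg/mL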

Sequence of Nonstructural protein 1 (Q194T2 whole entry): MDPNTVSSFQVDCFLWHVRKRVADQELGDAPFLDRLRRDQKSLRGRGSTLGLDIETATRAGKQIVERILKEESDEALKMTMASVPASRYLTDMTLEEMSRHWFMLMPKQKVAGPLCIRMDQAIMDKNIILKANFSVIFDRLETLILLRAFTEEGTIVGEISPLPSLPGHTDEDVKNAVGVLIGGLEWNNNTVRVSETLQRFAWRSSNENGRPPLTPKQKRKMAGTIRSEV
Sequence of Cytochrome P450 2D6 (P10635 whole entry, the tested form may be a part): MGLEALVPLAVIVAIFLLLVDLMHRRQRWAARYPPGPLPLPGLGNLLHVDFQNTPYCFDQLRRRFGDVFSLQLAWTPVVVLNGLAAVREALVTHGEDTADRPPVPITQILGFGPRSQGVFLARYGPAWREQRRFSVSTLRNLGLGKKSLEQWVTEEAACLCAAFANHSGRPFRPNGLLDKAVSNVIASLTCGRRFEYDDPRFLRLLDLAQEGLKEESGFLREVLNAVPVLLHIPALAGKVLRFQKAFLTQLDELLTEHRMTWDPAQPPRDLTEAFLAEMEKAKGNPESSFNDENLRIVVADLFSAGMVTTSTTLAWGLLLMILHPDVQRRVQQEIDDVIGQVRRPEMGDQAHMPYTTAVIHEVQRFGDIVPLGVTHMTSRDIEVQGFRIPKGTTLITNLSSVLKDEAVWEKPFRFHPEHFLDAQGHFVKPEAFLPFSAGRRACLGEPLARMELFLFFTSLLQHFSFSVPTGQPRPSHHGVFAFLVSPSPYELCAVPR
Sequence of Luciferin 4-monooxygenase (P08659 whole entry): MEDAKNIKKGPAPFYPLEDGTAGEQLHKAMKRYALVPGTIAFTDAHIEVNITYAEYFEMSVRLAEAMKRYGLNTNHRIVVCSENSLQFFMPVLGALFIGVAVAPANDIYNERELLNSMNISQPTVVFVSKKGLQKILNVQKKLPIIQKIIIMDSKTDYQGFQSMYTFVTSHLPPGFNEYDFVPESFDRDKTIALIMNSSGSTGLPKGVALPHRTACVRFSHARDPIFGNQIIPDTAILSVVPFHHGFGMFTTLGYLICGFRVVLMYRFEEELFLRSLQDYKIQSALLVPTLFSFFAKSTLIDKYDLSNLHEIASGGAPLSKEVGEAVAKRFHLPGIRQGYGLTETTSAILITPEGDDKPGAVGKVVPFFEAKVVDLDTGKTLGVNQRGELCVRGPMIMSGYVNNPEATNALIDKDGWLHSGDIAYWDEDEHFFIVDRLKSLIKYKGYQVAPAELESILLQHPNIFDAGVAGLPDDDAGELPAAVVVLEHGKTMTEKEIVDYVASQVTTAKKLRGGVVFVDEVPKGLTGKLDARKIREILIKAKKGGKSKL
Sequence of Cytochrome P450 2C9 (P11712 whole entry): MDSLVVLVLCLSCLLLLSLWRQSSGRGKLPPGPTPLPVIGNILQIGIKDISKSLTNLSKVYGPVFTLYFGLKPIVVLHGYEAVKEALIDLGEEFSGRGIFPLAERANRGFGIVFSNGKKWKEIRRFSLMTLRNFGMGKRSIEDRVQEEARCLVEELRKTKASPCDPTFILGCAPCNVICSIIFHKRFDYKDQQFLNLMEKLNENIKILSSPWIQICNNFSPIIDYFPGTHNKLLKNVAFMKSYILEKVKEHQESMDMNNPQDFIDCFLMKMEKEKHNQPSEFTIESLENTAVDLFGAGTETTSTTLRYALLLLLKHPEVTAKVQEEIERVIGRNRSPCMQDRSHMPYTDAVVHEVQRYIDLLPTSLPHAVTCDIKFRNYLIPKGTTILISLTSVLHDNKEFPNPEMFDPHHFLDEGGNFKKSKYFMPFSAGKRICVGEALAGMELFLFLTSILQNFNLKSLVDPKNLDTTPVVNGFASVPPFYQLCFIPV

SMILES: Oc1c(Cl)cc(CN2CCCCC2)c2cccnc12
- EC50 [1]: 53.1 µM (inconclusive)
- EC50 (BJ [2]): 25.9 µM (inconclusive)
- EC50 (BJ [3]): 1.39 µM (active)
- EC50 (BJ [4]): 76.1 µM (inconclusive)

SMILES: O=C(Nc1cnn(Cc2ccc(F)cc2)c1)C(c1ccccc1)c1ccccc1
- EC50 [5]: 18.2 µM (active)
- IC50 [6]: 9.63 µM (not active)
- EC50 [7]: 49.5 µM (active)

SMILES: CCCCS(=N)(=O)CC[C@H](N)C(=O)O (stereo partly specified) [BUTHIONINE SULFOXIME]
- GI50 (P388): 2.25 mM (inactive)
- GI50 (SN12K1): 3.72 mM (inactive)
- GI50 (P388/ADR): > 5 mM (inactive)

SMILES: O=C(CSCc1c(F)cccc1Cl)NCC1CCCO1 (stereo unspecified)
- AC50 (Cytochrome P450 2C9): inconclusive

SMILES: CN(C)CCCN(C(=O)c1ccc2c(c1)CCCC2)c1nc2ccc(Cl)cc2s1
- IC50 (Nonstructural protein 1): > 100 µM (active)
- IC50 [8]: > 20 µM (inactive)

SMILES: COc1cc(/C=C/c2ccc(OC)c(OC)c2)oc(=O)c1
- GI50 (P388): 0.0964 mM (inactive)
- GI50 (SN12K1): > 0.183 mM (inactive)
- GI50 (P388/ADR): > 0.183 mM (inactive)

SMILES: O=C(Nc1cccc(C(F)(F)F)c1)c1ccc(Cn2cc(Br)cn2)o1
- AC50 (Cytochrome P450 2D6): 22.4 µM (inconclusive)
- AC50 [9]: 29.6 µM (active)

SMILES: Cc1ccccc1N=C(S)NCc1ccc2[nH]c3c(c2c1)CCCC3
- IC50 (Nonstructural protein 1): > 100 µM (active)

SMILES: CCN(CC)S(=O)(=O)c1ccc(C)c(NC(S)=NNC(=O)C2CC2)c1
- IC50 [6]: > 50 µM (not active)

SMILES: CCOC(=O)C1(Cc2cccc(OC)c2)CCN(Cc2cccc(OCC)c2O)CC1
- IC50 [6]: 8.3 µM (not active)

SMILES: COc1cc2ccccc2cc1C(=O)N(CCN(C)C)c1nc2ccc(Br)cc2s1
- EC50 [10]: > 38 µM (not active)
- EC50 [11]: 101 µM (active)

SMILES: COC(=O)C1CCN(Cc2c(C(=O)N3C[C@@H](C)O[C@@H](C)C3)nc3ccc(Cl)cn23)CC1
- EC50 [10]: > 38 µM (not active)
- EC50 [11]: > 150 µM (inactive)

SMILES: COCCCN=C(S)NNC(=O)C1CC1c1ccc(C(C)(C)C)cc1 (stereo unspecified)
- IC50 [6]: > 50 µM (not active)
